This assay concerns the target T1, AKAP1 (Mus musculus, UniProt O08715).
T1 construct: from tissue; host or cells: mouse brown adipose tissue (BAT) lysate; also mouse brown adipocyte extracts
T1 sequence (O08715 30-857): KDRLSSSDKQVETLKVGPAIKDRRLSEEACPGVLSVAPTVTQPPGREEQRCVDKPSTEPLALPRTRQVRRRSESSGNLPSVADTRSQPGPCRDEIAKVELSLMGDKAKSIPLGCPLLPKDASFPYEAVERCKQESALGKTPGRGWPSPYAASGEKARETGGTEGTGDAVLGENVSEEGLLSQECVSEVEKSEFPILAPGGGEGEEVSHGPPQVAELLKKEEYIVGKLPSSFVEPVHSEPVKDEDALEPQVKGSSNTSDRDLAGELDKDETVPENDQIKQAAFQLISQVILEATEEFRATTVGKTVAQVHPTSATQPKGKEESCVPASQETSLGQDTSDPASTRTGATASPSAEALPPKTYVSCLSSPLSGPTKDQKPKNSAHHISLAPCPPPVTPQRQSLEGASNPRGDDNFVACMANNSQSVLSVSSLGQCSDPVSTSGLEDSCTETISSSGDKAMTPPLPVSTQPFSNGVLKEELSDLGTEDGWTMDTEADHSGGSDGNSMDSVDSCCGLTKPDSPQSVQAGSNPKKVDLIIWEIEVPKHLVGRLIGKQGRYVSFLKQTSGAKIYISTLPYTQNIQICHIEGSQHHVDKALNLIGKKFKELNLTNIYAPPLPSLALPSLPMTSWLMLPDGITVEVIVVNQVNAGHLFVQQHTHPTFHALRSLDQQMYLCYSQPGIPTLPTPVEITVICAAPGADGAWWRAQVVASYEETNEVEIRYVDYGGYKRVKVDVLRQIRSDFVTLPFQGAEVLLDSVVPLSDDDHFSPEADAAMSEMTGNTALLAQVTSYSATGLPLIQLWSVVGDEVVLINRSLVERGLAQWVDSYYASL
The assay is described as follows: Western blot of mitochondria-associated proteins, AKAP1. The assay is classed as cell-based. The note with it: brown adipocytes, 10 μM, after 6-8 h. How it is done: Cells and tissues were lysed in 10 mM Tris pH 7.5, 10 mM NaCl, 1 mM EDTA and 0.5% Triton X-100, supplemented with complete mini EDTA-free protease (Roche Diagnostics) and phosphatase (Cocktail 2 and 3, Sigma) inhibitors, followed by 10 second sonication. For analysis of mitochondrial proteins, mitochondria were isolated from cells by dual centrifugation, as described. Protein lysates were separated by SDS-PAGE and transferred to a nitrocellulose membrane. Transfer was confirmed by Ponceau staining (P7170, Sigma). After blocking in 5% milk, 0.1% Tween-20 in Tris-buffered saline (TBS), primary antibody was incubated overnight at 4° C. in 5% bovine serum albumin and 0.1% Tween-20 in TBS. Primary antibodies against ACTB (GTX109639, GeneTex), AKAP1 (5203, Cell Signaling), AKAP6 (07-087, Millipore), Cytochrome c (136F3, Cell Signaling), electron transport chain protein complexes (Total OXPHOS rodent WB antibody cocktail ab110413, Abcam), GAPDH (GTX100118, Genetex), active p38 MAPK (V1211, Promega), total p38 MAPK (8690, Cell Signaling), PGC1α (AB3242, Millipore), phospho-(Ser/Thr) PKA substrate (9621, Cell Signaling), PKA C-α (4782, Cell Signaling), PKA RII-β (ab75993, Abcam), and UCP1 (662045, Calbiochem) were used at 1:2000. […] Quantification using representative bands from the Ponceau staining was performed with ImageJ. […]

On to `COc1ccc(NC(=O)CSc2nc3ccccc3c(=O)[nH]2)c(OC)c1` [Z160], for which the “AKAP1 protein levels in the mitochondrial fraction” value is recorded as “increased”.

For the origin of these results see US12661355B2, “Compounds and methods for inducing UCP1 expression” (The Regents of the University of California, priority 2020, dated 2026).
